Test results taken from patent US9604969B2, “Pyrimidin-4-yl)oxy)-1h-indole-1-carboxamide derivatives and use thereof” (NOVARTIS AG, priority 2013, dated 2017).
Where a name gives a salt, the structure may show the parent alone.

Legend:
[1] = assay type: physicochemical
Description: Crystalline form B of the HCl salt of N-(1-methyl-5-(trifluoromethyl)-1H-pyrazol-3-yl)-5-((6-((methylamino)methyl)pyrimidin-4-yl)oxy)-1H-indole-1-carboxamide was obtained using the same procedure as in Example 5 above.

[2] = tested on: rabbit hepatocytes; assay: Hepatocyte viability during incubation (Guava ViaCount); assay type: cell-based; conditions: 10 μmol/L, percent viable cells relative to total cells, controls without compound 4-21%
Description: (§1) After thawing the cryopreserved hepatocytes, the viable cells were enriched by centrifugation in HepatoZYME cell culture medium (Gibco Invitrogen). For this purpose, the cells were added to 45 mL of a 37° C. warm HepatoZYME, and centrifuged at room temperature, at 50 g for 5 min. The supernatant containing dead cells was discarded and the cells in the pellet were re-suspended in HepatoZYME.
(§2) The viability of the re-suspended hepatocytes was determined by a Guava EasyCyte™ Mini system using the ViaCount® assay as described by the supplier (Guava Technologies, Hayward, Calif., USA). After cell counting, the cell concentration was adjusted to approx. 1·10^6 viable cells/mL by adding HepatoZYME. Subsequently, the incubations were started by adding [^14C]N-(1-methyl-5-(trifluoromethyl)-1H-pyrazol-3-yl)-5-(6-((methylamino)methyl)pyrimidin-4-yloxy)-1H-indole-1-carboxamide and non-labeled N-(1-methyl-5-(trifluoromethyl)-1H-pyrazol-3-yl)-5-(6-((methylamino)methyl)pyrimidin-4-yloxy)-1H-indole-1-carboxamide as a solution in DMSO. The final concentration of DMSO in the incubations was 0.1% (v/v).
(§3) To check the chemical stability of [^14C]N-(1-methyl-5-(trifluoromethyl)-1H-pyrazol-3-yl)-5-(6-((methylamino)methyl)pyrimidin-4-yloxy)-1H-indole-1-carboxamide under the incubation conditions, the compound was incubated at a concentration of 10 μmol/L in HepatoZYME without hepatocytes. A second series of control incubations was performed with hepatocytes of all species in the absence of the test compound to investigate the effect of the latter on the viability. These experiments were performed in a 12×6 mL MultiWell™ plate (Art. 393503, Beckton Dickinson).
(§4) The incubations were performed at 37° C. under a humidified atmosphere of 95% relative humidity and 5% CO2 in a Heraeus incubator/cytoperm (Kendro Laboratory Products AG, Zürich, Switzerland). During the incubations, the plates and flasks were shaken at 300 strokes per minute. The viability of the hepatocytes was determined after 6 h (end of incubation).

[3] = tested on: human hepatocytes; assay: as above; assay type: cell-based; conditions: 10 μmol/L, percent viable cells relative to total cells, controls without compound 4-21%
Description: as §1, §2, §3, §4

[4] = tested on: monkey hepatocytes; assay: as above; assay type: cell-based; conditions: 10 μmol/L, percent viable cells relative to total cells, controls without compound 4-21%
Description: as §1, §2, §3, §4

[5] = tested on: rat hepatocytes; assay: as above; assay type: cell-based; conditions: 10 μmol/L, percent viable cells relative to total cells, controls without compound 4-21%
Description: as §1, §2, §3, §4

[6] = Control incubations for chemical stability in incubation media; assay type: physicochemical; conditions: 10 μmol/L, 37° C., incubation media in the absence of hepatocytes or liver microsomes
Description: as §3
Microsomal incubations for metabolite profiles were performed at 10 μmol/L of [^14C]N-(1-methyl-5-(trifluoromethyl)-1H-pyrazol-3-yl)-5-(6-((methylamino)methyl)pyrimidin-4-yloxy)-1H-indole-1-carboxamide (approx. 50% radiolabeled) with one time point investigated (60 min). Incubations were performed at 37° C. in 0.1 mol/L sodium phosphate buffer pH 7.4. The final concentrations in the incubation cocktail were: 4 mmol/L UDPGA (Sigma-Aldrich), 1 mmol/L β-NADPH (Sigma-Aldrich), 5 mmol/L MgCl2, and 60 μg alamethicin (Sigma-Aldrich) per mg microsomal protein. The system was left to incubate for 10 min before adding the test compound to allow the pore formation with the alamethicin. […]

Compound | Stability of crystalline form [1] | Viability at 6 h [2] | Viability at 6 h [3] | Viability at 6 h [4] | Viability at 6 h [5] | Chemical stability under the incubation conditions [6]
CNCc1cc(Oc2ccc3c(ccn3C(=O)Nc3cc(C(F)(F)F)n(C)n3)c2)ncn1 [Form B, N-(1-methyl-5-(trifluoromethyl)-1H-pyrazol-3-yl)-5-((6-((methylamino)methyl)pyrimidin-4-yl)oxy)-1H-indole-1-carboxamide (HCl Salt) Form B] | transient form that converts back to Form A |  |  |  |  | 
CNCc1cc(Oc2ccc3c(ccn3C(=O)Nc3cc(C(F)(F)F)n(C)n3)c2)ncn1 [N-(1-methyl-5-(trifluoromethyl)-1H-pyrazol-3-yl)-5-((6-((methylamino)methyl)pyrimidin-4-yl)oxy)-1H-indole-1-carboxamide] |  | 8% | 25% | 42% | 22% | confirmed the stability of the compound
